{"source": "patent US9751825B2", "about": "“TAK1 kinase inhibitors, compositions, and used related thereto” (Emory University, priority 2011, dated 2017)", "key": {"LNCaP-C4-2": {"test_system": "LNCaP-C4-2", "assay": "Cytotoxicity of HDAB001 in prostate carcinoma cell lines, LNCaP-C4-2", "format": "cell-based", "settings": "LNCaP-C4-2, AR pos, ind, metastatic", "description": "(§1) The assay consists of treatment of cells with the synthetic compounds (a range of concentrations) and subsequent quantification of the cells by staining with methylene blue and measuring optical density of the resulting colored solution. The measured optical densities are normalized to a vehicle-control and the normalized values are used to determine IC50 values for a given compound using SigmaPlot software, Systat Software, Inc., San Jose, Calif. Cells were seeded in 96-well plate at 2-5,000 cells/well in 100 μl. Next day cells were treated with HDAB compounds. Stocks of compounds (10 mM) were prepared by dissolving in DMSO. Consecutive dilutions ranging 10 nM-100 μM concentrations were prepared as 2× solutions in media, and 100 μl solutions were added to cells for treatment. DMSO was used as a vehicle control. Cells were incubated with compounds for 48 hours at 37° C. in a CO2-incubator. For cell staining, media was removed and cells were fixed and stained with 0.5% Methylene blue in water/methanol (50:50) solution for 1 hour at room temperature (RT). After extensive rinsing in ddH2O the plates were dried over-night. Cells were solubilized in 100 μl/well of 1% SDS in PBS for 10 minutes at RT, the absorbance at 650 nm (methylene-blue absorbance) and 540 nm (background) was read with a SpectraMax fluorimeter and the difference Abs650-Abs540 was calculated. […]"}, "[1]": {"test_system": "mouse carcinoma cell line 4T1", "assay": "Cytotoxicity in mouse carcinoma cell line 4T1", "format": "cell-based", "settings": "4T1 (from BALB/c mice)", "description": "as §1"}, "ER-positive cell lines": {"test_system": "ER-positive cell lines", "assay": "Cytotoxicity in ER-positive breast carcinoma cell lines", "format": "cell-based", "settings": "three ER-positive cell lines", "description": "as §1"}, "PC3": {"test_system": "PC3", "assay": "Cytotoxicity of HDAB001 in prostate carcinoma cell lines, PC3", "format": "cell-based", "settings": "PC3, AR neg, metastatic", "description": "as §1"}, "ER/HER2-positive lines": {"test_system": "ER/HER2-positive lines", "assay": "Cytotoxicity in ER/HER2-positive breast carcinoma lines", "format": "cell-based", "settings": "two ER/HER2-positive lines", "description": "as §1"}, "[2]": {"test_system": "Non-tumor MCF12A (ER+) cells", "assay": "Cytotoxicity in non-tumor MCF12A cells", "format": "cell-based, human", "description": "as §1"}, "phosphorylation of Smad2": {"test_system": "phosphorylation of Smad2", "assay": "Phosphorylation of Smad2 in TGFβ1-treated cells", "format": "cell-based", "settings": "2 ng/ml TGFβ1 for 2 hours; HDAB001 10 μM", "description": "(§2) MEK inhibitor U0126 inhibits phosphorylation of ERK and EGFR inhibitor blocks EGFR-mediated phospho-ERK in MCF10A.\n(§3) The selectivity of the HDAB001 and HDAB006 compounds was tested in several cell-based assays examining the kinase activity of RAF, MEK, EGFR and TGFBR1. Several known inhibitors of the above kinases were used for control. Two luciferase reporters NF-KB-Luc and SBE-Luc were transfected in MDA-MB-231 cells to assess the effect of compounds on NF-KB and TGF-beta receptor-Smad signaling events. […] See Safina et al., TAK1 is required for TGF-[beta]1-mediated regulation of matrix metalloproteinase-9 and metastasis. Oncogene, 2008, 27, 1198-1207. […] The kinase activities of TGF-beta receptors type I and type II are required for phosphorylation of Smad2."}, "RWPE-1": {"test_system": "RWPE-1", "assay": "Cytotoxicity of HDAB001 in prostate cell lines, RWPE-1 (non-tumor)", "format": "cell-based", "settings": "RWPE-1, AR pos", "description": "as §1"}, "RWPE-2": {"test_system": "RWPE-2", "assay": "Cytotoxicity of HDAB001 in prostate carcinoma cell lines, RWPE-2", "format": "cell-based", "settings": "RWPE-2, AR pos, tumor, metastatic", "description": "as §1"}, "[3]": {"test_system": "Non-tumor MCF10A (ER-, PR-) cells", "assay": "Cytotoxicity in non-tumor MCF10A cells", "format": "cell-based, human", "description": "as §1"}, "[4]": {"test_system": "breast carcinoma MDA-MB-231 cells", "assay": "Cytotoxicity assay (methylene blue staining), MDA-MB-231 cells", "format": "cell-based", "description": "(§4) The assay consists of treatment of cells with the synthetic compounds (a range of concentrations) and subsequent quantification of the cells by staining with methylene blue and measuring optical density of the resulting colored solution. The measured optical densities are normalized to a vehicle-control and the normalized values are used to determine IC50 values for a given compound using SigmaPlot software, Systat Software, Inc., San Jose, Calif. Cells were seeded in 96-well plate at 2-5,000 cells/well in 100 μl. Next day cells were treated with HDAB compounds. Stocks of compounds (10 mM) were prepared by dissolving in DMSO. Consecutive dilutions ranging 10 nM-100 μM concentrations were prepared as 2× solutions in media, and 100 μl solutions were added to cells for treatment. DMSO was used as a vehicle control. Cells were incubated with compounds for 48 hours at 37° C. in a CO2-incubator. For cell staining, media was removed and cells were fixed and stained with 0.5% Methylene blue in water/methanol (50:50) solution for 1 hour at room temperature (RT). After extensive rinsing in ddH2O the plates were dried over-night. Cells were solubilized in 100 μl/well of 1% SDS in PBS for 10 minutes at RT, the absorbance at 650 nm (methylene-blue absorbance) and 540 nm (background) was read with a SpectraMax fluorimeter and the difference Abs650-Abs540 was calculated."}, "LNCaP": {"test_system": "LNCaP", "assay": "Cytotoxicity of HDAB001 in prostate carcinoma cell lines, LNCaP", "format": "cell-based", "settings": "AR pos, tumor", "description": "as §1"}, "SBE-Luc": {"test_system": "SBE-Luc", "assay": "SBE-Luc luciferase reporter (TGF-beta receptor-Smad signaling) in MDA-MB-231 cells", "format": "cell-based", "description": "FIG. 3A-B show data on the luciferase activity of NFkB-Luc and SBE-Luc reporters in MDA-MB-231 control, dnTAK1 or cells treated with HDAB001 and HDAB006, P-values by the ANOVA test.\nas §3"}, "[5]": {"test_system": "prostate cancer cells (PC3) and breast cancer MDA-MB-231 cells", "assay": "Tumor cell growth with kinase inhibitors, with or without TNFα (FIG. 2)", "format": "cell-based", "settings": "48 hrs; for tumor cell growth: 5 μM U0126, 10 μM 1478, 5 μM 5Z-7-oxozeanol, 5 μM HDAB001, 5 μM SB431542; for repression of tumor cell growth together with TNFα: TNFα (10 ng/ml)", "from_the_text": "The response of prostate cancer cells (PC3, FIG. 2) and breast cancer MDA-MB-231 cells to HDAB001 was compared with responses to known kinase inhibitors, including 5Z-7-oxozeanol, a selective inhibitor of TAK1; U0126, a selective MEK inhibitor; AG1478, a selective EGFR inhibitor; SB431542, TGFBR1 inhibitor."}, "[6]": {"test_system": "phosphorylation of ERK1/2", "assay": "Phosphorylation of ERK1/2 in MDA-MB-231 cells", "format": "cell-based", "settings": "2 ng/ml TGFβ1 for 2 hours, 10 μM HDAB001, 5 μM U0126", "description": "as §2, §3"}, "[7]": {"test_system": "breast, prostate and lung carcinoma and non-tumor cell lines", "format": "cell-based", "description": "as §4\nAssays were carried out with a panel of breast, prostate and lung carcinoma and non-tumor cell lines with HDAB-001. […] The selectivity trend for HDAB001 was further validated in a set of prostate carcinoma and non-tumor epithelial cell lines."}, "phosphorylation of ERK": {"test_system": "phosphorylation of ERK", "assay": "Phosphorylation of ERK in non-tumor MCF10A cells with EGF-mediated signaling", "format": "cell-based, human", "settings": "10 μM HDAB001, 10 μM AG1478", "description": "as §2, §3"}, "[8]": {"assay": "Stability of the isolated product at room temperature", "format": "physicochemical"}, "[9]": {"settings": "triple-negative MDA-MB-231 cells"}}, "note": "“Also recorded” adds a separate entry of the source. Like-named read-outs stand apart in the source and are kept apart here.", "data": [{"smiles": "COC(=O)/C=C\\C=C(\\C(=O)OC)c1ccc(Cl)c(Cl)c1", "note": "[HDAB001]", "values": [{"measurement": "IC50", "setting": "LNCaP-C4-2", "value": 0.5, "unit": "µM"}, {"measurement": "IC50", "setting": "[1]", "value": 0.53, "unit": "µM"}, {"measurement": "IC50", "setting": "ER-positive cell lines", "value": "0.3 to 0.75", "unit": "µM"}, {"measurement": "IC50", "setting": "PC3", "value": 2.3, "unit": "µM"}, {"measurement": "IC50", "setting": "ER/HER2-positive lines", "value": "1 to 1.5", "unit": "µM"}, {"measurement": "IC50", "setting": "[2]", "value": "> 100", "unit": "µM"}, {"measurement": "phosphorylation of Smad2", "setting": "phosphorylation of Smad2", "value": "did not affect"}, {"measurement": "IC50", "setting": "RWPE-1", "value": 40.1, "unit": "µM"}, {"measurement": "IC50", "setting": "RWPE-2", "value": 2.4, "unit": "µM"}, {"measurement": "IC50", "setting": "[3]", "value": 48, "unit": "µM"}, {"measurement": "IC50", "setting": "[4]; MDA-MB-231 cells, 48 hours incubation, methylene blue staining", "value": 4.62, "unit": "µM"}, {"measurement": "IC50", "setting": "[4]; [9]", "value": 3.7, "unit": "µM"}, {"measurement": "IC50", "setting": "LNCaP", "value": 2.1, "unit": "µM"}, {"measurement": "TGF-beta reporter activity", "setting": "SBE-Luc", "value": "did not affect"}, {"measurement": "tumor cell growth", "setting": "[5]", "value": "markedly inhibited"}, {"measurement": "repression of tumor cell growth together with TNFα", "setting": "[5]", "value": "cooperated with TNFα"}, {"measurement": "phosphorylation of ERK1/2", "setting": "[6]", "value": "did not affect"}, {"measurement": "IC50 in non-tumor MCF10A and MCF12A cells relative to tumor cells", "setting": "[7]; non-tumor vs tumor cells", "value": "~20", "unit": "fold"}, {"measurement": "selectivity for tumor cells compared to non-tumor cells", "setting": "[7]; tumor vs non-tumor cells", "value": "at least twenty-fold"}, {"measurement": "phosphorylation of ERK in the presence of EGF-mediated signaling", "setting": "phosphorylation of ERK", "value": "did not affect"}]}, {"smiles": "COC(=O)/C=C\\C=C(\\C(=O)OC)c1ccc(Br)c(Br)c1", "note": "[HDAB022, (2E,4Z)-dimethyl 2-(3,4-dibromophenyl)hexa-2,4-dienedioate]", "values": [{"measurement": "IC50", "setting": "[4]; Homo sapiens, MDA-MB-231 cells, 48 hours incubation, methylene blue staining", "value": 2.16, "unit": "µM"}]}, {"smiles": "N#CC(=C(/N)Sc1ccccc1N)/C(C#N)=C(\\N)Sc1ccccc1N", "note": "[Compound U0126]", "values": [{"measurement": "tumor cell growth", "setting": "[5]", "value": "less sensitive"}, {"measurement": "phosphorylation of ERK1/2", "setting": "[6]", "value": "inhibits; also recorded: effectively blocked"}]}, {"smiles": "COc1cc(O)c2c(c1)/C=C/C[C@H](O)[C@H](O)C(=O)/C=C\\C[C@H](C)OC2=O", "note": "[5Z-7-oxozeanol]", "values": [{"measurement": "tumor cell growth", "setting": "[5]", "value": "markedly inhibited"}, {"measurement": "repression of tumor cell growth together with TNFα", "setting": "[5]", "value": "cooperated with TNFα"}]}, {"smiles": "COC(=O)/C=C\\C=C(\\C(=O)N(C)OC)c1ccc(Cl)c(Cl)c1", "note": "[Compound 1-63h, (2Z,4E)-methyl 5-(3,4-dichlorophenyl)-6-(methoxy(methyl)amino)-6-oxohexa-2,4-dienoate]", "values": [{"measurement": "stability after isolation", "setting": "[8]", "value": "decomposed at room temperature"}]}, {"smiles": "NC(=O)c1ccc(-c2nc(-c3ccc4c(c3)OCO4)c(-c3ccccn3)[nH]2)cc1", "note": "[SB431542, reference compound]", "values": [{"measurement": "phosphorylation of Smad2", "setting": "phosphorylation of Smad2", "value": "blocked"}, {"measurement": "tumor cell growth", "setting": "[5]", "value": "resistant"}]}, {"smiles": "COc1cccc2c1C(=O)c1c(O)c3c(c(O)c1C2=O)C[C@@](O)(C(=O)CO)C[C@@H]3O[C@H]1C[C@H](N)[C@H](O)[C@H](C)O1", "note": "[Doxorubicin, reference compound]", "values": [{"measurement": "more toxic to non-tumor MCF10A than to breast cancer MDA-MB-231 cells", "setting": "[7]; human, 48 h", "value": "3-10 fold"}]}, {"smiles": "O=c1[nH]cc(F)c(=O)[nH]1", "note": "[Compound 5FU, 5-FluororoUricil, reference compound]", "values": [{"measurement": "IC50", "setting": "[3]", "value": 1.8, "unit": "µM"}, {"measurement": "IC50", "setting": "[4]; [9]", "value": 5.7, "unit": "µM"}, {"measurement": "more toxic to non-tumor MCF10A than to breast cancer MDA-MB-231 cells", "setting": "[7]", "value": "3-10 fold"}]}, {"smiles": "COc1cc2ncnc(Nc3cccc(Cl)c3)c2cc1OC", "note": "[AG1478]", "values": [{"measurement": "tumor cell growth", "setting": "[5]", "value": "resistant"}, {"measurement": "phosphorylation of ERK in the presence of EGF-mediated signaling", "setting": "phosphorylation of ERK", "value": "blocked"}]}]}
